Reference: patent publication US20240009246A1, “CELLULAR-ANTIMICROBIAL COMBINATION COMPOSITION AND METHODS FOR TREATMENT OF BACTERIAL INFECTIONS OF JOINTS AND SOFT TISSUES” (priority 2021, published 2024)
Converted amounts (≈) assume the structure as drawn. Like-named read-outs stand apart in the source and are kept apart here.

Legend:
[1] = system: Chondrocytes; assay: in vitro cytotoxic activity of antibiotics against horse chondrocytes; type: cell-based; conditions: for IC50: Equus caballus, Chondrocyte, read-out: Concentration (equine IC50)
Excerpt: (§1) Table 1 and 2 represent in vitro evaluation of the cytotoxic activity of different conventional antibiotics, as assessed for toxicity against dog cells (Table 1) or horse cells (Table 2). Similar toxicity profiles would also be anticipated for human cells.
(§2) The antibiotics with the highest IC50 values are considered non-cytotoxic, while those with lower values are considered more cytotoxic, and unsuitable for co-administration with activated MSC or activated iMSCs. For example, amikacin and enrofloxacin are more cytotoxic to joint cells (e.g. synovial cells and chondrocytes) than vancomycin, and should not be used for preparing the antibiotic plus activated MSCs formulations of uses herein, whereas vancomycin is one of the preferred antibiotics for these formulations for treating gram+ infections.
(§3) Table 2 represents and overview of equine IC50s of certain antibiotics of use herein

[2] = system: Synovial Cells; assay: in vitro cytotoxic activity of antibiotics against horse synovial cells; type: cell-based; conditions: for IC50: Equus caballus, Synovial cell, read-out: Concentration (equine IC50)
Excerpt: as §1, §2, §3

[3] = in vitro cytotoxic activity of antibiotics against dog synoviocytes; type: cell-based
Excerpt: as §1, with “cells. The antibiotics with the highest IC50 values are considered non-cytotoxic, while those with lower values are considered more cytotoxic, and unsuitable for co-administration with activated MSC or activated iMSCs.” for “cells.”

[4] = in vitro cytotoxic activity of antibiotics against dog chondrocytes; type: cell-based; parameters: IC50 (cytotoxicity): unit not given beside the values
Excerpt: as §1, with “cells. The antibiotics with the highest IC50 values are considered non-cytotoxic, while those with lower values are considered more cytotoxic, and unsuitable for co-administration with activated MSC or activated iMSCs.” for “cells.”

[5] = system: CHONDROCYTES; assay: as above; type: cell-based; parameters: IC50 (cytotoxicity): unit not given beside the values
Excerpt: as §1, with “cells. The antibiotics with the highest IC50 values are considered non-cytotoxic, while those with lower values are considered more cytotoxic, and unsuitable for co-administration with activated MSC or activated iMSCs.” for “cells.”

[6] = system: MRSA strain of Staphylococcus aureus; assay: equine model of septic arthritis (joint infected with MRSA), intra-articular treatment
Excerpt: In one example, a model of septic arthritis was studied. […] Certain objectives of this study were to determine if intra-articular (IA) administration of TLR activated MSCs (e.g. bone marrow derived MSCs) improve clinical outcomes and reduce bacterial burden and biomarkers of joint inflammation in an equine model of septic arthritis compared to conventional antimicrobial therapy alone. It was hypothesized that activated MSC therapy in combination with conventional antibiotic therapy could improve resolution of septic arthritis as assessed by lameness evaluation, joint circumference, imaging, and more rapid resolution of bacterial infection and inflammatory biomarkers.
In this example, four horses, each experimentally infected in one joint with MRSA strain of Staphylococcus aureus in one joint were set up for the study. Treatment started 24 h after introduction of the infective agent, two antibiotic only (control); two in TLR3 MSC plus antibiotic. All horses were treated with vancomycin (e.g. 100 mg) injected directly into the joint. The control 2 horses were just treated with vancomycin. The experimental 2 horses were (TLR MSC horses) were also treated with activated equine allogeneic MSC (e.g. 2×10^6) injected into joint immediately after vancomycin. These treatments were repeated three times at 3-day intervals for MSC horse, only twice for control horse (euthanized on day 7). The treatment responses were evaluated by cultured synovial fluid from joints (bacti counts, cell counts) and joint circumference and swelling. […] The experimental horses receiving the combined treatment were euthanized on day 14 to assess joint parameters and bacterial counts.
Synovial fluid was collected from each horse in the study, at the indicated time points, starting the day before infection (DO) and continuing until day 7. Control horses treated with vancomycin injections into the joint only, while TLR-MSC horse was treated with both activated MSC and vancomycin, both injected into the joint. The vancomycin dose was 100 mg per injection, while the dose of TLR3 activated MSC was 2×10^6 cells per injection, consisting of activated, allogeneic MSC obtained from bone marrow of unrelated healthy horses.
Synovial fluid samples from the two horses described in FIGS. 1A and 1B were also evaluated for their concentration of live MRSA bacteria. Collected samples were processed to disaggregate the bacteria in the synovial fluid, then the sample was serially diluted in PBS and then plated on quadrant plates with LB agar.
Skeletally mature horses, (male Quarter Horses, 3 years of age), deemed healthy by physical examination, bloodwork (complete blood count, serum biochemical panel), and without evidence of tarsal osteoarthritis determined radiographically were treatment recipients.

## C[C@@H](O)[C@H]1C(=O)N2C(C(=O)O)=C(SCCN=CN)C[C@H]12 [Imipenem]
[1]; equine chondrocytes
  IC50: > 25000 µg/mL
[2]; equine synovial cells
  IC50: > 25000 µg/mL

## Cc1nnc(SCC2=C(C(=O)O)N3C(=O)[C@@H](NC(=O)Cn4cnnn4)[C@H]3SC2)s1 [Cefazolin]
[3]; dog
  IC50: 1480 µg/mL (≈ 3.26 mM)
[4]; dog
  IC50: 1670 µg/mL (≈ 3.67 mM)
[1]; equine chondrocytes
  IC50: 3950 µg/mL (≈ 8.69 mM)
[2]; equine synovial cells
  IC50: 1160 µg/mL (≈ 2.54 mM)

## CC(C)(O/N=C(\C(=O)N[C@@H]1C(=O)N2C(C(=O)[O-])=C(C[n+]3ccccc3)CS[C@H]12)c1csc(N)n1)C(=O)O [Ceftazidime]
[3]; dog
  IC50: 1620 µg/mL (≈ 2.97 mM)
[4]; dog
  IC50: 3160 µg/mL (≈ 5.78 mM)
[1]; equine chondrocytes
  IC50: 3590 µg/mL (≈ 6.57 mM)
[2]; equine synovial cells
  IC50: 3360 µg/mL (≈ 6.15 mM)

## C[C@H]1c2cccc(O)c2C(=O)C2=C(O)[C@]3(O)C(=O)C(C(N)=O)=C(O)[C@@H](N(C)C)[C@@H]3[C@@H](O)[C@@H]21 [Doxycycline]
[1]; equine chondrocytes
  IC50: 1030 µg/mL (≈ 2.32 mM)
[2]; equine synovial cells
  IC50: 711 µg/mL (≈ 1.6 mM)

## NCC[C@H](O)C(=O)N[C@@H]1C[C@H](N)[C@@H](O[C@H]2O[C@H](CN)[C@@H](O)[C@H](O)[C@H]2O)[C@H](O)[C@H]1O[C@H]1O[C@H](CO)[C@@H](O)[C@H](N)[C@H]1O [Amikacin]
[3]; dog
  IC50: 2260 µg/mL (≈ 3.86 mM)
[4]; dog
  IC50: 2740 µg/mL (≈ 4.68 mM)
[1]; equine chondrocytes
  IC50: < 390 µg/mL
[2]; equine synovial cells
  IC50: 799 µg/mL (≈ 1.36 mM)

## CC1(C)S[C@@H]2[C@H](NC(=O)[C@H](N)c3ccc(O)cc3)C(=O)N2[C@H]1C(=O)O [Amoxicillin]
[1]; equine chondrocytes
  IC50: 14000 µg/mL (≈ 38.3 mM)
[2]; equine synovial cells
  IC50: > 25000 µg/mL

## NC[C@H]1O[C@H](O[C@H]2[C@H](O)[C@@H](O[C@H]3O[C@H](CO)[C@@H](O)[C@H](N)[C@H]3O)[C@H](N)C[C@@H]2N)[C@H](N)C[C@@H]1O [Tobramycin]
[1]; equine chondrocytes
  IC50: > 25000 µg/mL
[2]; equine synovial cells
  IC50: 9490 µg/mL (≈ 20.3 mM)

## CCN1CCN(c2cc3c(cc2F)c(=O)c(C(=O)O)cn3C2CC2)CC1 [Enrofloxacin]
[3]; dog
  IC50: 1250 µg/mL (≈ 3.47 mM)
[5]
  IC50 (cytotoxicity): .078< × <1.56
[1]; equine chondrocytes
  IC50: 4590 µg/mL (≈ 12.8 mM)

## CS(=O)(=O)c1ccc([C@@H](O)[C@@H](CF)NC(=O)C(Cl)Cl)cc1 [Florfenicol]
[1]; equine chondrocytes
  IC50: 2190 µg/mL (≈ 6.11 mM)
[2]; equine synovial cells
  IC50: 2960 µg/mL (≈ 8.25 mM)

## CN[C@H](CC(C)C)C(=O)N[C@H]1C(=O)N[C@@H](CC(N)=O)C(=O)N[C@H]2C(=O)N[C@H]3C(=O)N[C@H](C(=O)N[C@H](C(=O)O)c4cc(O)cc(O)c4-c4cc3ccc4O)[C@H](O)c3ccc(c(Cl)c3)Oc3cc2cc(c3O[C@@H]2O[C@H](CO)[C@@H](O)[C@H](O)[C@H]2O[C@H]2C[C@](C)(N)[C@H](O)[C@H](C)O2)Oc2ccc(cc2Cl)[C@H]1O [Vancomycin]
[3]; dog synoviocytes, read-out: IC50 (cytotoxicity)
  IC50: 13800 µg/mL (≈ 9.5 mM)
[4]; dog chondrocytes, read-out: IC50 (cytotoxicity)
  IC50: 8640 µg/mL (≈ 5.97 mM)
[1]
  IC50: 7310 µg/mL (≈ 5.04 mM)
[2]
  IC50: 7810 µg/mL (≈ 5.39 mM)
[6]; control euthanized day 7, combined treatment day 14
  overall outcome of joint infection: uncontrolled joint infection
[6]; infected joint vs uninfected joint
  circumference of the infected tarsocrural joint (effusion): remained very swollen
[6]; over time after MRSA joint infection
  body temperature (fever) course: body temperature spikes were noted at two time points
[6]; spikes
  body temperature in peaks: around 102 ° F.

## CO/N=C(\C(=O)N[C@@H]1C(=O)N2C(C(=O)O)=C(CSC(=O)c3ccco3)CS[C@H]12)c1csc(N)n1 [Ceftiofur Sodium]
[1]; equine chondrocytes
  IC50: 4270 µg/mL
[2]; equine synovial cells
  IC50: > 25000 µg/mL

## Gentamicin
[1]; equine chondrocytes
  Concentration (equine IC50): 708.3 µg/mL
[2]; equine synovial cells
  Concentration (equine IC50): 512.5 µg/mL

## CC1(C)S[C@@H]2[C@H](NC(=O)Cc3ccccc3)C(=O)N2[C@H]1C(=O)[O-].[K+] [Potassium penicillin]
[1]; equine chondrocytes
  Concentration (equine IC50): 11610 µg/mL

## Ampicillin sulbactam
[1]; equine chondrocytes
  Concentration (equine IC50): >25000 µg/mL
[2]; equine synovial cells
  Concentration (equine IC50): >25000 µg/mL

## Neomycin
[1]; equine chondrocytes
  Concentration (equine IC50): 821.9 µg/mL
[2]; equine synovial cells
  Concentration (equine IC50): 6274 µg/mL
